Measurements as given in patent publication US4783462A, “3(2H)pyridazinone, and anti-allergic agent containing it” (Nissan Chemical Industries Ltd., priority 1985, dated 1988).

Key:
[1] = tested on: anaphylactic bronchoconstriction in passively sensitized guinea-pig; test: Effect on anaphylactic bronchoconstriction in passively sensitized guinea-pig; assay type: in vivo; conditions: 2 mg/kg i.v.
Description: (iii) Effect on anaphylactic bronchoconstriction in passively sensitized guinea-pig
Male guinea-pigs (350-450 g) were passively sensitized with intravenous (i.v.) injection of 0.125 ml rabbit anti-EA (egg albumin) serum (Cappel Laboratories) 1 day preceding the experiment. […] Sensitized guinea-pigs were anaesthetized with intraperitoneal injection of urethane (1.5 g/kg). The right jugular vein was cannulated for the administration of the all agents and trachea was cannulated to record total pulmonary resistance. Guinea-pigs were artificially ventilated by a small animal respirator (Shinano, Model SN-480-7) set at a stroke volume of 5 ml and a rate of 50 breaths per min. […] The increase in air overflow volume was expressed as a percentage of the maximum bronchoconstriction obtained by clamping off the trachea. Following surgical preparation, the animals were pretreated with indomethacin (1.0 mg/kg, 10 min), pyrilamine (2 mg/kg, 6 min) and propranolol (0.1 mg/kg, 5 min) prior to the EA challenge (0.1 or 10 mg/kg). All test compounds, 2 mg/kg in 3% Tween 80 or 3% PEG-400, were administered 1 min before the EA challenge. Inhibition (%) of bronchoconstriction was determined as follows: Inhibition (%)=(1.0%-maximum bronchoconstriction in test/% maximum bronchoconstriction in control)×100. The maximum bronchoconstriction was obtained within 20 min after the EA challenge.
In the Table, the dose of EA was 10 mg/kg, and each compound was dissolved or suspended in 3% Tween 80.
The dose of EA was 0.1 mg/kg.

LTC4 [2] = test: LTC4 antagonism in isolated guinea-pig trachea, Test method (i) (Table 2); assay type: cell-based; conditions: Cavia porcellus, 5 min, read-out: Antagonism (%)
Description: (§1) (i) LTC4 and LTD4 antagonisms in guinea-pig trachea
(§2) Antagonisms for LTC4 and LTD4 were determined in isolated guinea-pig trachea prepared as spiral strip. Tracheal preparations were suspended under 1 g tension in 10 ml organ baths and they were incubated for 1 hr prior to use. Contractile responses to LTC4 (2×10^-8 g/ml) and LTD4 (2×10^-8 g/ml) were obtained after the maximal response to histamine (10^-4 M). Test compounds dissolved in 100% dimethyl sulfoxide were added to the organ baths (final concentration of 10^-5 g/ml or 10^-6 g/ml) 5 min prior to LTC4 and LTD4 addition, and then contractile responses to LTC4 and LTD4 were compared with those of control which was obtained from a paired trachea in the absence of test compounds. LTC4 - and LTD4 -induced contractions were expressed as a percentage of the maximal response to histamine. The antagonism was determined as follows:
(§3) Antagonism (%)=(1.0-% contraction in test/% contraction in […]

ddY strain male mice = test: Acute toxicity test, Test method-(2), intraperitoneal; assay type: in vivo; conditions: 7 days
Description: The lethal ratio was determined in ddY strain male mice (4 weeks old) at 7 days after the intraperitoneal injection of test compounds.

LTC4 [3] = test: Antagonism in isolated guinea-pig trachea, Test method (i) (Table 3, given as LTC4 antagonism); assay type: cell-based; conditions: Cavia porcellus, 5 min, test compound 10^-5 g/ml, given as LTC4 antagonisms
Procedure, shortened: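 Spiral strips of guinea-pig trachea under 1 g tension, contracted by LTC4 (2×10^-8 g/ml) after maximal histamine (10^-4 M) response. Compounds added at 10^-5 or 10^-6 g/ml final 5 min beforehand; contraction expressed as % histamine maximum and antagonism % calculated against paired untreated trachea.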

LTD4 [4] = test: LTD4 antagonism in isolated guinea-pig trachea with indomethacin, Test method (ii) (Table 4); assay type: cell-based; conditions: Cavia porcellus, 0.5 h, LTD4 2×10^-8 g/ml, test compound 10^-6 g/ml, 30 min prior, 5 μmol indomethacin
LTD4 [5] = test: LTD4 antagonism in isolated guinea-pig trachea, Test method (i) (Table 4, values with asterisk); assay type: cell-based; conditions: Cavia porcellus, 5 min, test compound 10^-6 g/ml, 5 min prior
Description: as §1, §2, §3

[6] = Table 5-(1), EA 10 mg/kg, 3% Tween 80

| Compound | Inhibition (%) [1, 6] [%] | inhibition at 10 µg/mL (LTC4 [2]; LTC4 2×10^-8 g/ml, test compound 10^-5 g/ml) [%] | Lethal ratio (Death number/Experimental number) (ddY strain male mice; 200 mg/kg intraperitoneal) | Lethal ratio (Death number/Experimental number) (ddY strain male mice; 400 mg/kg intraperitoneal) | inhibition at 10 µg/mL (LTC4 [3]) [%] | Inhibition (%) ([1]; Table 5-(2), EA 0.1 mg/kg, Tween 80) | inhibition at 10 µg/mL (LTC4 [2]) [%] | inhibition at 1 µg/mL (LTD4 [4]) [%] | inhibition at 1 µg/mL (LTD4 [5]) [%] |
| --- | --- | --- | --- | --- | --- | --- | --- | --- | --- |
| CCCc1cc(C(=O)O)ccc1OCCCNc1cnn(CC)c(=O)c1Cl [Compound No. 7, 4-Chloro-5-[3-(2-n-propyl-4-carboxyphenoxy)propylamino]-2-ethyl-3(2H)pyridazinone] | 31 | 95 | 0/2 | 0/1 | 82 | – | – | – | – |
| CCCc1c(OCC(O)COc2ccc3c(=O)cc(C(=O)O)oc3c2CCC)ccc(C(C)=O)c1O (centres unmarked) [FPL-55712, reference compound] | 27 | – | – | – | 97 | 60 | 100 | 94 | 76 |
